Test results taken from patent US6521628B1, “Fungicidal mixtures” (BASF Aktiengesellschaft, priority 1999, dated 2003).
Like-named read-outs stand apart in the source and are kept apart here.

Tests used:
Assay type in all cases: in vivo
[1] = system: Erysiphe cichoracearum; assay: Greenhouse test, 4 day residual, Erysiphe cichoracearum on cucumbers (Examples 6, 11, 14); conditions: Golovinomyces cichoracearum, 96 h, read-out: Observed Efficacy; for pest or weed control at 0.4 ppm: dose rate 0.4 ppm; for pest or weed control at 2 ppm: dose rate 2 ppm; for pest or weed control at 10 ppm: dose rate 10 ppm; for pest or weed control at 50 ppm: dose rate 50 ppm
Method: (§1) The trials are carried out under greenhouse (Examples 1 to 18) or field conditions (Example 19) in residual or curative applications. The fungicides are applied in single treatments, or in a combination comprising a benzophenone of formula I and a compound selected from the classes (A) through (E) as defined above. The compounds are applied in form of an aqueous spray mix obtained from concentrated formulation or the technical material.
(§2) 1. Seed is planted in 6 cm diameter plastic pots and maintained in the greenhouse.
(§3) 2. When the primary leaf is fully expanded in the case of cereals or several leaves are present in the case of dicots, formulated test compounds are sprayed with a three nozzle overhead fungicide sprayer to near run-off. Alternatively, a single nozzle overhead track sprayer is used for application of the compounds to cereals at a rate of 200 l/ha. Plants are then allowed to air-dry.
(§4) 3. Inoculation precedes treatment in the case of curative evaluations and follows treatment in case of residual evaluations.
(§5) For inoculation of powdery mildew disease, plants are set up on greenhouse benches with bottom watering mats and inoculated by dusting them with conidia from infected plants. Between inoculation and treatment for curative evaluations and between treatment and inoculation for residual evaluations, plants are maintained in the greenhouse with bottom watering.
(§6) 4. Disease on the foliage as percent leaf area with disease symptoms/signs is evaluated about 7 days after inoculation. In the case of wheat, the tips and bases of the leaves are excluded from the evaluation. [formula]
(§7) 1. Technical compounds are formulated in a solvent/surfactant system consisting of 5% acetone and 0.05% Tween 20 in deionized water. Compounds are dissolved in acetone prior to addition of the water; the Tween 20 can be added through either the acetone or the water. Dilutions are made using the solvent/surfactant system. Formulated compounds are prepared using deionized water.
(§8) Assessments of the diseases took place at the indicated day after the application of the compounds. Per cent infected leaf area infected was evaluated. The efficacy of the compounds/compounds mixtures to control the diseases was calculated by using the formula given above under item 4: […]
(§9) Synergy was calculated using the % disease control values of specific treatments for the two COLBY formula given hereinabove
Fungicidal Efficacy of the Mixture of BP-4+Other Fungicides (4 Day Residual) Against Erysiphe cichoracearum on Cucumbers
Fungicidal Efficacy of the Mixture of BP4+Other Fungicides (4 Day Residual) Against Erysiphe cichoracearum on Cucumbers

[2] = system: Puccinia recondita; assay: Greenhouse test, 4 day residual, Puccinia recondita on wheat (Examples 7, 9, 12, 15); conditions: 96 h, read-out: Observed Efficacy; for pest or weed control at 0.4 ppm: dose rate 0.4 ppm; for pest or weed control at 2 ppm: dose rate 2 ppm; for pest or weed control at 10 ppm: dose rate 10 ppm; for pest or weed control at 50 ppm: dose rate 50 ppm; for pest or weed control at 4 ppm: dose rate 4 ppm; for pest or weed control at 16 ppm: dose rate 16 ppm
Method: as §1, §2, §3, §4
(§10) For inoculation of non-powdery mildew diseases, an aqueous spore suspension of the pathogen is applied to the plant and the plants are kept 1-2 days in a moist infection chamber before being returned to the greenhouse where they are maintained by bottom watering.
as §6, §7, §8, §9
Fungicidal Efficacy of the Mixture of BP-4+Other Fungicides (4 Day Residual) Against Puccinia recondita on Wheat
Fungicidal Efficacy of the Mixture of BP4+Other Fungicides (4 Day Residual) Against Puccinia recondita on Wheat
Fungicidal Efficacy of the Mixture of BP-4+Myclobutanil (4 Day Residual) Against Puccinia recondita on Wheat

[3] = system: Leptosphaeria nodorum; assay: Greenhouse test, 4 day residual, Leptosphaeria nodorum on wheat (Examples 8, 10); conditions: Parastagonospora nodorum, 96 h, single compound, read-out: Observed Efficacy; for pest or weed control at 4 ppm: dose rate 4 ppm; for pest or weed control at 16 ppm: dose rate 16 ppm; for pest or weed control at 64 ppm: dose rate 64 ppm; for pest or weed control at 256 ppm: dose rate 256 ppm
Excerpt: as §1, with “The” for “The trials are carried out under greenhouse (Examples 1 to 18) or field conditions (Example 19) in residual or curative applications. The”
as §2, §3, §4, §10, §6, §7, §8, §9

[4] = system: Pyrenophora teres; assay: Greenhouse test, 4 day residual, Pyrenophora teres on barley (Examples 13, 16); conditions: 96 h, single product, read-out: Observed Efficacy; for pest or weed control at 0.4 ppm: dose rate 0.4 ppm; for pest or weed control at 2 ppm: dose rate 2 ppm; for pest or weed control at 10 ppm: dose rate 10 ppm; for pest or weed control at 50 ppm: dose rate 50 ppm
Method: as §1, §2, §3, §4, §10, §6, §7, §8, §9
Fungicidal Efficacy of the Mixture of BP4+Other Fungicides (4 Day Residual) Against Pyrenophora teres on barley
Fungicidal Efficacy of the Mixture of BP4+Other Fungicides (4 Day Residual) Against Pyrenophora teres on Barley

[5] = system: Blumeria graminis f. sp. tritici; assay: Greenhouse test, 2 day curative, Blumeria graminis f. sp. tritici on wheat (Example 17); conditions: Table XVII, single compound
Method: as §1, §2, §3, §4, §5, §6, §7, §8, §9
Fungicidal Efficacy of the Mixture of Different Benzophenones+Metconazole (2 Day Curative) Against Blumeria graminis f. sp. tritici on Wheat

[6] = system: Uncinula necator; assay: Greenhouse test, 1 day residual, Uncinula necator on vines (Example 18); conditions: Table XVIII, single compound
Method: as §1, §2, §3, §4, §5, §6, §7, §8, §9
Fungicidal Efficacy of the Mixture of BP-4+AP-4 (1 Day Residual) Against Uncinula necator on Vines

[7] = Example 14, Table XIV, single product, cucumbers
[8] = Table XI, single compound or product
[9] = Example 15, Table XV, single product, wheat

COc1cc(C)c(C(=O)c2c(C)ccc(Br)c2OC)c(OC)c1OC [BP-4, 3-bromo-2′,6-dimethyl-2,4′,5′,6′-tetramethoxybenzophenone]
pest or weed control at 0.4 ppm [1, 7]: 0%
pest or weed control at 2 ppm [1, 7]: 0%
pest or weed control at 10 ppm [1, 7]: 13%
pest or weed control at 50 ppm [1, 7]: 97%
pest or weed control at 1 ppm ([1]; Table VI, single compound, dose rate 1 ppm): 1%
pest or weed control at 4 ppm ([1]; Table VI, single compound, dose rate 4 ppm): 6%
pest or weed control at 16 ppm ([1]; Table VI, single compound, dose rate 16 ppm): 51%
pest or weed control at 64 ppm ([1]; Table VI, single compound, dose rate 64 ppm): 100%
pest or weed control at 0.4 ppm [1, 8]: 0%
pest or weed control at 2 ppm [1, 8]: 2%
pest or weed control at 10 ppm [1, 8]: 55%
pest or weed control at 50 ppm [1, 8]: 96%
pest or weed control at 0.4 ppm [2, 9]: 0%
pest or weed control at 2 ppm [2, 9]: 0%
pest or weed control at 10 ppm [2, 9]: 6%
pest or weed control at 50 ppm [2, 9]: 12%
pest or weed control at 4 ppm ([2]; Table IX, single compound): 6%
pest or weed control at 16 ppm ([2]; Table IX, single compound): 4%
pest or weed control at 64 ppm ([2]; Table IX, single compound, dose rate 64 ppm): 16%
pest or weed control at 256 ppm ([2]; Table IX, single compound, dose rate 256 ppm): 38%
pest or weed control at 4 ppm ([2]; Table VII, single compound): 0%
pest or weed control at 16 ppm ([2]; Table VII, single compound): 0%
pest or weed control at 0.4 ppm ([2]; Table XII, single compound): 2%
pest or weed control at 2 ppm ([2]; Table XII, single compound): 7%
pest or weed control at 10 ppm ([2]; Table XII, single compound): 10%
pest or weed control at 50 ppm ([2]; Table XII, single compound): 31%
pest or weed control at 4 ppm ([3]; Table VIII): 0%
pest or weed control at 16 ppm ([3]; Table VIII): 0%
pest or weed control at 64 ppm ([3]; Table VIII): 14%
pest or weed control at 256 ppm ([3]; Table VIII): 34%
pest or weed control at 4 ppm ([3]; Table X): 0%
pest or weed control at 16 ppm ([3]; Table X): 10%
pest or weed control at 64 ppm ([3]; Table X): 18%
pest or weed control at 256 ppm ([3]; Table X): 44%
pest or weed control at 0.4 ppm ([4]; Example 13, Table XIII): 0%
pest or weed control at 2 ppm ([4]; Example 13, Table XIII): 0%
pest or weed control at 10 ppm ([4]; Example 13, Table XIII): 34%
pest or weed control at 50 ppm ([4]; Example 13, Table XIII): 58%
pest or weed control at 0.4 ppm ([4]; Example 16, Table XVI): 0%
pest or weed control at 2 ppm ([4]; Example 16, Table XVI): 0%
pest or weed control at 10 ppm ([4]; Example 16, Table XVI): 0%
pest or weed control at 50 ppm ([4]; Example 16, Table XVI): 11%
Observed Efficacy ([5]; dose rate 0.67 ppm): 9%
Observed Efficacy ([5]; dose rate 2 ppm): 27%
Observed Efficacy ([5]; dose rate 6 ppm): 42%
Observed Efficacy ([5]; dose rate 18 ppm): 78%
Observed Efficacy ([5]; dose rate 54 ppm): 92%
Observed Efficacy ([6]; dose rate 0.25 ppm): 0%
Observed Efficacy ([6]; dose rate 0.5 ppm): 21%
Observed Efficacy ([6]; dose rate 1 ppm): 28%
Observed Efficacy ([6]; dose rate 2 ppm): 9%
Observed Efficacy ([6]; dose rate 4 ppm): 43%
Observed Efficacy ([6]; dose rate 8 ppm): 42%

CC(C1CC1)C(O)(Cn1cncn1)c1ccc(Cl)cc1 (stereo not drawn) [Cyproconazole]
pest or weed control at 0.4 ppm [2, 9]: 58%
